Test results as given in patent US5104866A, “Water-soluble antibiotic composition and water-soluble salts of cephem compounds” (Fujisawa Pharmaceutical Company, Ltd., priority 1987, dated 1992).
Structures can show the parent of a compound that is named as a salt.

Columns and labels:
[1] = Dissolution test: velocity of dissolution of test samples after addition of distilled water at ambient temperature; assay type: physicochemical; conditions: reference sample without carbonic acid salt
Experimental: As a comparison, the following reference samples were also tested.
The velosity of dissolution of the test samples were observed after addition of distilled water into said test samples at ambient temperature,respectively.

P. aeruginosa 26 = assay: In vitro antibacterial activity, two-fold agar-plate dilution method (MIC); assay type: cell-based; conditions: Pseudomonas aeruginosa, HI-agar, 10^6 viable cells per ml, 37° C., 20 hours, read-out: minimal inhibitory concentration (MIC)
Experimental: Sodium 7-[2-allyloxyimino-2-(5-carboxylatoamino-1,2,4-thiadiazol-3-yl)acetamido]- 3-(1-pyridinio)methyl-3-cephem-4-carboxylate (syn isomer).
In vitro antibacterial activity was determined by the two-fold agar-plate dilution method as described below.

| SMILES | Maximum concentration of this sample dissolved in water [1] | MIC (P. aeruginosa 26) [µg/mL] |
| --- | --- | --- |
| C=CCO/N=C(\C(=O)NC1C(=O)N2C(C(=O)[O-])=C(C[n+]3ccccc3)CSC12)c1nsc(N)n1 (stereo not drawn) [Reference Sample (1), 7-[2-allyloxyimino-2-(5-amino-1,2,4-thiadiazol-3-yl)acetamido]-3-(1-pyridinio)methyl-3-cephem-4-carboxylate (syn isomer)] | 4.07 % (w/v) | – |
| C=CCO/N=C(\C(=O)NC1C(=O)N2C(C(=O)[O-])=C(C[n+]3ccccc3)CSC12)c1nsc(N)n1 (stereo not drawn) [Reference Sample (2), 7-[2-allyloxyimino-2-(5-amino-1,2,4-thiadiazol-3-yl)acetamido]-3-(1-pyridinio)methyl-3-cephem-4-carboxylate hydrochloride (syn isomer)] | 8.28 % (w/v) | – |

More lines, now with the values ahead:

| Maximum concentration of this sample dissolved in water [1] | MIC (P. aeruginosa 26) [µg/mL] | SMILES |
| --- | --- | --- |
| 2 % (w/v) | – | CO/N=C(\C(=O)NC1C(=O)N2C(C(=O)[O-])=C(C[n+]3ccccc3)CSC12)c1nsc(N)n1 (stereo not drawn) [Reference Sample (3), 7-[2-(5-amino-1,2,4-thiadiazol-3-yl)-2-methoxyiminoacetamido]-3-(1-pyridinio)methyl-3-cephem-4-carboxylate (syn isomer)] |
| 10 % (w/v) | – | CO/N=C(\C(=O)NC1C(=O)N2C(C(=O)[O-])=C(C[n+]3ccccc3)CSC12)c1nsc(N)n1 (stereo not drawn) [Reference Sample (4), 7-[2-(5-amino-1,2,4-thiadiazol-3-yl)-2-methoxyiminoacetamido]-3-(1-pyridinio)methyl-3-cephem-4-carboxylate sulfate (syn isomer)] |
| – | 0.39 | C=CCO/N=C(\C(=O)NC1C(=O)N2C(C(=O)[O-])=C(C[n+]3ccccc3)CSC12)c1nsc(NC(=O)O)n1 (stereo not drawn) [Test salt, Sodium 7-[2-allyloxyimino-2-(5-carboxylatoamino-1,2,4-thiadiazol-3-yl)acetamido]-3-(1-pyridinio)methyl-3-cephem-4-carboxylate (syn isomer)] |
